The values that follow are results of earlier work, collected in patent publication EP0433909A2, “Formulation” (CIBA-GEIGY AG, priority 1989, dated 1991).

The conditions of this data set: for solubilities: in water, K. Wellinga et al., J. Agr. Food Chem. Vol 21, No.3 (1973), p.350.

On to `O=C(NC(=O)c1c(Cl)cccc1Cl)Nc1ccc(Cl)c(Cl)c1` [1-(2,6-dichlorobenzoyl)-3-(3,4-dichlorophenyl)-urea], for which the solubilities is reported as at most 1 ppm.
Take `O=C(NC(=O)c1c(Cl)cccc1Cl)Nc1ccc(Cl)cc1` [1-(4-chlorophenyl)-3-(2,6-dichlorobenzoyl)-urea]: the solubilities is at most 1 ppm.
On to `O=C(NC(=O)c1c(F)cccc1F)Nc1ccc(Cl)cc1` [1-(4-chlorophenyl)-3-(2,6-difluorobenzoyl)urea], for which the solubility in water entry (The Merck Index, 9th Ed. (1976), p. 416) was “about 0.3 ppm”.
